Experimental findings from US20250109135A1, “NOVEL ISOINDOLINONE DERIVATIVE COMPOUNDS AS CASPASE INHIBITORS” (INNOVO THERAPEUTICS INC., priority 2022, published 2025) are described below.

In one experiment the test system is Jurkat cells. The experiment can be described thus: Apoptosis inhibition activity in human T-lymphocyte cells Jurkat (anti-FAS antibody, intracellular ATP). It counts as cell-based. The following applies: compound 50 nM, 1 μg/ml anti-FAS antibody 24 h, ATP luminescence. As for the experimental part:
To evaluate the effect of the compound of the present invention on apoptosis, Jurkat (ATCC) cells were treated with anti-FAS antibody CH-11 (Merck) to induce apoptosis via the Fas (CD95) receptor, which was assessed by the amount of intracellular ATP.
Jurkat cells were cultured in RPMI 1640 growth medium comprising 10% FBS and antibiotics (100 U/ml Penicillin, 0.1 mg/ml Streptomycin) under 37° C., 5% CO2 conditions. Cultured cells were seeded in growth medium to a concentration of 8×10^4 cells/well in 96-well plates (SPL), pretreated with compound at a concentration of 50 nM for 1 hour, and then treated with 1 μg/ml anti-FAS antibody for 24 hours in an incubator. After 24 h, an ATP lite Luminescence assay kit (PerkinElmer) was used to measure ATP and luminescence was measured at 580 nm using a CLARIOstar Plus spectrometer. If the inhibitory activity is 30% or more, it is denoted as a′, if it is 20% or more but less than 30%, it is denoted as b′, if it is 10% or more but less than 20%, it is denoted as c′, and if it is less than 10%, it is denoted as d′.

Experiment [1] concerns the target T1, recombinant human Caspase-1 (Homo sapiens, UniProt P29466).
T1 construct: purchased Enzo life science
T1 sequence (P29466 120-297 limits assumed): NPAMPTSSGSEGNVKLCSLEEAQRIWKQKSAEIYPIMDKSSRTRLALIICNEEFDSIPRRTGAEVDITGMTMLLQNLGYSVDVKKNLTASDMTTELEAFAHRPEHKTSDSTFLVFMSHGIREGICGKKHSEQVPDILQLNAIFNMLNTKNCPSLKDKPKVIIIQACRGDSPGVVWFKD
T1 sequence (P29466 317-404 limits assumed): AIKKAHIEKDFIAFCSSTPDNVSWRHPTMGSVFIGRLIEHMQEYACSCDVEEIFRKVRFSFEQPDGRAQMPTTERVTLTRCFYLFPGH
The experiment can be described thus: Caspase-1 inhibitory activity, fluorescent substrate Ac-YVAD-AFC. In kind it is biochemical. As for the experimental part: To determine the Caspase-1 inhibitory activity of the compounds of the present invention prepared in Example, Caspase-1 activity was measured using a substrate with a fluorescent dye attached to it. […] The compound was dissolved in DMSO and stored at −20° C. Enzymatic reactions were carried out in a buffer comprising 50 mM HEPES (pH 8.0), 50 mM KCl, 200 mM NaCl, 10 mM DTT, 0.1% CHAPS (w/v). Enzyme inactivation was measured in the presence of different concentrations of the compound using the fluorescent substrate N-Acetyl-Tyr-Val-Ala-Asp-7-amido-4-trifluoromethylcoumarin (Ac-YVAD-AFC) (Sigma) at a concentration of 50 μM and 1 unit of recombinant human Caspase-1 (Enzo life science). A CLARIOstar Plus spectrometer (BMG Labtech) was used to measure the reaction rate as a function of time in the 400/505 nm (Ex/Em) wavelength band. […] If kobs/[I] is 20 or more, it is denoted as A, if it is 10 or more but less than 20, it is denoted as B, if it is 1 or more but less than 10, it is denoted as C, and if it is less than 1, it is denoted as D.
In the above equation, At means the enzyme reaction rate at time t (min), and Amax means the maximum reaction rate.

Experiment [2] deals with Secreted IL-1β in THP-1 cells. Briefly: Interleukin-1β inhibitory activity in human monocytic cells THP-1 (ELISA). It counts as cell-based. To be noted: compound 100 nM, PMA-differentiated THP-1, LPS 10 μg/ml then 5 mM ATP, 24 h. As for the experimental part:
Caspase-1 is known as […] (ICE). Activated Caspase-1 is involved in the cleavage of pro-form IL-1β to produce the mature form, which is then secreted to induce inflammation. Therefore, the compounds identified in Experimental example 1 were tested to determine if their Caspase-1 inhibitory activity affected the production of […].
THP-1 (ATCC) cells were cultured in RPMI 1640 (Hyclone) growth medium comprising 10% Fetal bovine serum (FBS, Gibco) and antibiotics (100 U/ml Penicillin, 0.1 mg/ml Streptomycin, Cytiva) under 37° C., 5% CO2 conditions. Cultured THP-1 cells were seeded in growth medium to a concentration of 3×10^5 cells/well in 24-well plates (Celvest) and then treated with 1 μM Phorbol 12-myristate 13-acetate (PMA) (Sigma) for 24 hours to induce differentiation. Differentiated THP-1 were pre treated with 10 μg/ml Lipopolysaccharide (LPS, from E. coli 0111:B4 (InvivoGen)) in serum free RPMI 1640 medium for 24 hours to induce an inflammatory response. After removal of LPS, the compounds were pretreated for 1 h at a concentration of 100 nM using the same medium, followed by the addition of 5 mM ATP (InvivoGen) and incubation for 24 h in an incubator. The treated medium was collected and centrifuged, and IL-1β was quantified using an Enzyme linked immunoassay kit (ELISA kit, R&D system), and absorbance was measured at 450 nm using a CLARIOstar Plus spectrometer. Inhibitory activity was denoted as a if it was 50% or more, b if it was 30% or more but less than 50%, c if it was 10% or more but less than 30%, and d if it was less than 10%.

[3] abbreviates: pH 8, 1 unit recombinant human Caspase-1, 50 μM Ac-YVAD-AFC, read-out: kobs/[I] Caspase-1.
Where [4] appears, read: pH 8, read-out: kobs/[I] Caspase-1.

Like-named read-outs stand apart in the source and are kept apart here.

In the experiment on Jurkat cells, `CCC(C(=O)NC(CC(=O)O)C(=O)CF)N1Cc2ccc(-c3ccc(OC)nc3)cc2C1=O` (stereo not drawn) [Compound 13, 5-fluoro-3-(2-(6-(6-methoxypyridin-3-yl)-1-oxoisoindolin-2-yl)butanamido)-4-oxopentanoic acid] gave an inhibition at 0.05 µM of 20 to 30%. In experiment [1] (setting [3]), the kinact/KI was 0.0167 to 0.167 M⁻¹ s⁻¹. In experiment [2], this compound displayed an inhibition at 0.1 µM of at least 50%.

Turning to `CCC(C(=O)NC(CC(=O)O)C(=O)CF)N1Cc2ccc(-c3csc4ccccc34)cc2C1=O` (stereo not drawn) [Compound 16, 3-(2-(6-(benzo[b]thiophen-3-yl)-1-oxoisoindolin-2-yl)butanamido)-5-fluoro-4-oxopentanoic acid], the inhibition at 0.05 µM with Jurkat cells was in the range of 20 to 30%. Besides, the kinact/KI in experiment [1] (setting [4]) is over 0.333 M⁻¹ s⁻¹. In experiment [2], the inhibition at 0.1 µM was at least 50%.

For `CCC(C(=O)NC(CC(=O)O)C(=O)CF)N1Cc2ccc(-c3ccc(C(C)=O)cc3)cc2C1=O` (stereo not drawn) [Compound 18, 3-(2-(6-(4-acetylphenyl)-1-oxoisoindolin-2-yl)butanamido)-5-fluoro-4-oxopentanoic acid], the inhibition at 0.05 µM in the experiment with Jurkat cells lay within 10 to 20%. For the same compound, the kinact/KI in experiment [1] (setting [3]) lay within 0.0167 to 0.167 M⁻¹ s⁻¹. Also, the inhibition at 0.1 µM in experiment [2] was at least 50%.

In the case of `CCC(C(=O)NC(CC(=O)O)C(=O)CF)N1Cc2ccc(-c3coc4ccccc34)cc2C1=O` (stereo not drawn) [Compound 22, 3-(2-(6-(benzofuran-3-yl)-1-oxoisoindolin-2-yl)butanamido)-5-fluoro-4-oxopentanoic acid], in the experiment with Jurkat cells, the inhibition at 0.05 µM is 10 to 20%. In experiment [1] (setting [3]), the kinact/KI is over 0.333 M⁻¹ s⁻¹. In addition, the inhibition at 0.1 µM in experiment [2] lay in the range of 30 to 50%.

`CCC(C(=O)NC(CC(=O)O)C(=O)CF)N1Cc2ccc(-c3ccc4occc4c3)cc2C1=O` (stereo not drawn) [Compound 26, 3-(2-(6-(benzofuran-5-yl)-1-oxoisoindolin-2-yl)butanamido)-5-fluoro-4-oxopentanoic acid] came in with an inhibition at 0.05 µM with Jurkat cells of at least 30%. In addition, in experiment [1] (setting [3]), the kinact/KI is 0.0167 to 0.167 M⁻¹ s⁻¹. In experiment [2], the inhibition at 0.1 µM fell in the range of 30 to 50%.

In the experiment with Jurkat cells, `CCC(C(=O)NC(CC(=O)O)C(=O)CF)N1Cc2ccc(-c3ccc4c(c3)OCCO4)cc2C1=O` (stereo not drawn) [Compound 27, 3-(2-(6-(2,3-dihydrobenzo[b][1,4]dioxin-6-yl)-1-oxoisoindolin-2-yl)butanamido)-5-fluoro-4-oxopentanoic acid] came in with an inhibition at 0.05 µM of at least 30%. For the same compound, the kinact/KI in experiment [1] (setting [3]) fell in the range of 0.0167 to 0.167 M⁻¹ s⁻¹. Also, the inhibition at 0.1 µM in experiment [2] lay within 10 to 30%.

For `CCC(C(=O)NC(CC(=O)O)C(=O)CF)N1Cc2ccc(-c3cncc4ccccc34)cc2C1=O` (stereo not drawn) [Compound 29, 5-fluoro-3-(2-(6-(isoquinolin-4-yl)-1-oxoisoindolin-2-yl)butanamido)-4-oxopentanoic acid], in the experiment on Jurkat cells, the inhibition at 0.05 µM was under 10%. Also, in experiment [1] (setting [3]), the kinact/KI lay within 0.0167 to 0.167 M⁻¹ s⁻¹. This compound had an inhibition at 0.1 µM in experiment [2] of under 10%.

With `CCC(C(=O)NC(CC(=O)O)C(=O)CF)N1Cc2ccc(-c3ccc4ncccc4c3)cc2C1=O` (stereo not drawn) [Compound 30, 5-fluoro-4-oxo-3-(2-(1-oxo-6-(quinolin-6-yl)isoindolin-2-yl)butanamido)pentanoic acid], the inhibition at 0.05 µM with Jurkat cells is under 10%. Further, the kinact/KI in experiment [1] (setting [3]) is 0.167 to 0.333 M⁻¹ s⁻¹. Also, the inhibition at 0.1 µM in experiment [2] was under 10%.

For the compound `CCC(C(=O)NC(CC(=O)O)C(=O)CF)N1Cc2ccc(-c3cnc4ccccc4c3)cc2C1=O` (stereo not drawn) [Compound 37, 5-fluoro-4-oxo-3-(2-(1-oxo-6-(quinolin-3-yl)isoindolin-2-yl)butanamido)pentanoic acid], in the experiment on Jurkat cells, the inhibition at 0.05 µM was under 10%. The kinact/KI in experiment [1] (setting [4]) is 0.0167 to 0.167 M⁻¹ s⁻¹. This compound also showed an inhibition at 0.1 µM in experiment [2] of 10 to 30%.

Take `O=C(O)CC(NC(=O)CN1Cc2ccc(-c3ccc4[nH]c(=O)[nH]c4c3)cc2C1=O)C(=O)CF` (stereo not drawn) [Compound 38, 5-fluoro-4-oxo-3-(2-(1-oxo-6-(2-oxo-2,3-dihydro-1H-benzo[d]imidazol-5-yl)isoindolin-2-yl)acetamido)pentanoic acid]: the inhibition at 0.05 µM in the experiment on Jurkat cells was under 10%. The kinact/KI in experiment [1] (setting [4]) is under 0.0167 M⁻¹ s⁻¹. The same compound registered an inhibition at 0.1 µM in experiment [2] of under 10%.

`O=C(O)CC(NC(=O)CN1Cc2ccc(-c3coc4ccccc34)cc2C1=O)C(=O)CF` (stereo not drawn) [Compound 39, 3-(2-(6-(benzofuran-3-yl)-1-oxoisoindolin-2-yl)acetamido)-5-fluoro-4-oxopentanoic acid] gave an inhibition at 0.05 µM in the experiment with Jurkat cells of under 10%. Besides, in experiment [1] (setting [4]), the kinact/KI is 0.0167 to 0.167 M⁻¹ s⁻¹. This compound also yielded an inhibition at 0.1 µM in experiment [2] of under 10%.

On to `O=C(O)CC(NC(=O)CN1Cc2ccc(-c3csc4ccccc34)cc2C1=O)C(=O)CF` (stereo not drawn) [Compound 40, 3-(2-(6-(benzo[b]thiophen-3-yl)-1-oxoisoindolin-2-yl)acetamido)-5-fluoro-4-oxopentanoic acid], for which the inhibition at 0.05 µM in the experiment with Jurkat cells is under 10%. For the same compound, in experiment [1] (setting [4]), the kinact/KI was in the range of 0.0167 to 0.167 M⁻¹ s⁻¹. Also, the inhibition at 0.1 µM in experiment [2] was under 10%.

In the experiment on Jurkat cells, `O=C(O)CC(NC(=O)CN1Cc2ccc(-c3ccc4occc4c3)cc2C1=O)C(=O)CF` (stereo not drawn) [Compound 41, 3-(2-(6-(benzofuran-5-yl)-1-oxoisoindolin-2-yl)acetamido)-5-fluoro-4-oxopentanoic acid] gave an inhibition at 0.05 µM of under 10%. The kinact/KI in experiment [1] (setting [4]) was in the range of 0.0167 to 0.167 M⁻¹ s⁻¹. This compound returned an inhibition at 0.1 µM in experiment [2] of under 10%.

Compound `CC(C)[C@@H](C(=O)NC(CC(=O)O)C(=O)CF)N1Cc2ccc(-c3ccc4c(c3)OCCO4)cc2C1=O` (stereo partly drawn) [Compound 42, 3-((S)-2-(6-(2,3-dihydrobenzo[b][1,4]dioxin-6-yl)-1-oxoisoindolin-2-yl)-3-methylbutanamido)-5-fluoro-4-oxopentanoic acid] registered an inhibition at 0.05 µM in the experiment on Jurkat cells of at least 30%. For the same compound, the kinact/KI in experiment [1] (setting [3]) was 0.0167 to 0.167 M⁻¹ s⁻¹. The compound further had an inhibition at 0.1 µM in experiment [2] of 30 to 50%.

Regarding `CC(C)[C@@H](C(=O)NC(CC(=O)O)C(=O)CF)N1Cc2ccc(-c3coc4ccccc34)cc2C1=O` (stereo partly drawn) [Compound 44, 3-((S)-2-(6-(benzofuran-3-yl)-1-oxoisoindolin-2-yl)-3-methylbutanamido)-5-fluoro-4-oxopentanoic acid], in the experiment on Jurkat cells, the inhibition at 0.05 µM was in the range of 20 to 30%. The kinact/KI in experiment [1] (setting [3]) lay within 0.167 to 0.333 M⁻¹ s⁻¹. The inhibition at 0.1 µM in experiment [2] is at least 50%.

As to `CC(C)[C@@H](C(=O)NC(CC(=O)O)C(=O)CF)N1Cc2ccc(-c3ccc4[nH]c(=O)[nH]c4c3)cc2C1=O` (stereo partly drawn) [Compound 45, 5-fluoro-3-((S)-3-methyl-2-(1-oxo-6-(2-oxo-2,3-dihydro-1H-benzo[d]imidazol-5-yl)isoindolin-2-yl)butanamido)-4-oxopentanoic acid], the inhibition at 0.05 µM in the experiment with Jurkat cells was 10 to 20%. For the same compound, in experiment [1] (setting [4]), the kinact/KI lay in the range of 0.0167 to 0.167 M⁻¹ s⁻¹. The compound further came in with an inhibition at 0.1 µM in experiment [2] of 30 to 50%.
